Measurements taken from ChEMBL document CHEMBL4229566, “Discovery of ( S)-3-(3-(3,5-Dimethyl-1 H-pyrazol-1-yl)phenyl)-4-(( R)-3-(2-(5,6,7,8-tetrahydro-1,8-naphthyridin-2-yl)ethyl)pyrrolidin-1-yl)butanoic Acid, a Nonpeptidic αvβ6 Integrin Inhibitor for the Inhaled Treatment of Idiopathic Pulmonary Fibrosis” (J Med Chem, 2018).
Blank lines part the entries; values can stand above or below the molecule they belong to.

Tests used:
physchem = conditions: buffer, pH 7.4, logD
[1] = target: T1, Voltage-gated inwardly rectifying potassium channel KCNH2 (Homo sapiens, UniProt Q12809)
T1 sequence (Q12809 whole entry): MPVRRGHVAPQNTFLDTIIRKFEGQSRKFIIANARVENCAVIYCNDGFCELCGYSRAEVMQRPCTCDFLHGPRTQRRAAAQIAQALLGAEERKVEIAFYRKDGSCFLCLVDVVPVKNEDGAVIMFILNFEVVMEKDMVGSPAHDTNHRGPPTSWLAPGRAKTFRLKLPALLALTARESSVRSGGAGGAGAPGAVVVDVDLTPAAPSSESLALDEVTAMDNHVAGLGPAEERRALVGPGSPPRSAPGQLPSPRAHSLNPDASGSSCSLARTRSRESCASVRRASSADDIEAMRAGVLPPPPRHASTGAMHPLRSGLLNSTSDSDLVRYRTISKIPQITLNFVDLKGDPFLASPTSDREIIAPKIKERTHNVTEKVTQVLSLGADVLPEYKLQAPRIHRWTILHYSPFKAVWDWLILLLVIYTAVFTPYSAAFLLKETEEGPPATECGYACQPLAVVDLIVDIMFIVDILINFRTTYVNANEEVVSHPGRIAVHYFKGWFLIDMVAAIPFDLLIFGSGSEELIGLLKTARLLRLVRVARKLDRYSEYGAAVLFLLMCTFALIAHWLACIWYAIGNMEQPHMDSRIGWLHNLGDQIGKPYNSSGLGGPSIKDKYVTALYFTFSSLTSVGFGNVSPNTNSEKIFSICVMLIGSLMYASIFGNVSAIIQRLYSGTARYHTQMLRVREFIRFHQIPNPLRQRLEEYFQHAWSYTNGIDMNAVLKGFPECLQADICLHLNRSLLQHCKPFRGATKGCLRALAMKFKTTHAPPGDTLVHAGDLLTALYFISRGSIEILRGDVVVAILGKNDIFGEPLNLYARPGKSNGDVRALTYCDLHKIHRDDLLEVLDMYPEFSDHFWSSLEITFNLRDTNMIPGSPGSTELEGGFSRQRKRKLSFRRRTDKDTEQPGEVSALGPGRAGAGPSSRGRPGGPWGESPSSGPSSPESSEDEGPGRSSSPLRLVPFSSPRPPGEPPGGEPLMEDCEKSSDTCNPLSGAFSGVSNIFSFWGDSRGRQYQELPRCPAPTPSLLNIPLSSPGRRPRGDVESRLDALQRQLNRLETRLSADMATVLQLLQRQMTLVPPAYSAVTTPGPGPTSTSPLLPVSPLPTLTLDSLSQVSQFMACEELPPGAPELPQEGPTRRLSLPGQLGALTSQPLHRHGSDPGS
Description: Inhibition of human ERG expressed in HEK293 cells by Q-patch assay

[2] = target: T1, Voltage-gated inwardly rectifying potassium channel KCNH2; remark: listed apart in the source
Description: (§1) Inhibition of human ERG expressed in HEK293 cells by Barracuda automated patch clamp assay

[3] = Protein binding in human blood at 1 ug/ml after 4 hrs by LC-MS/MS analysis; type: ADME, tissue-based; conditions: at 1 µg/mL, read-out: PB (converted)
[4] = target: T1, Voltage-gated inwardly rectifying potassium channel KCNH2; conditions: HEK293 cells expressing hERG
Description: as §1

[5] = buffer, pH 7.4
[6] = Clearance in CD mouse liver microsomes at 0.5 uM up to 45 mins by LC-MS/MS analysis; type: ADME, microsome; conditions: 0.75 h
[7] = Drug uptake in lung of C57Bl/6J mouse at 1.5 mg/kg/day, sc administered via continuous infusion through mini-pumps measured within 24 hrs; type: ADME, organism-based; conditions: in vivo
[8] = Drug uptake in Wistar Han rat lung at 6.23 mg/kg administered via nebulized inhalation for 60 mins and measured immediately after inhalation period by MALDI-MS analysis; type: ADME, organism-based; conditions: in vivo, inhaled_or_intranasal, 1 h
[9] = Tmax in Beagle dog blood at 1 mg/kg, iv dosed via 60 mins infusion followed by 6 days washout and re-dosed via oral gavage at 1 mg/kg; type: ADME, organism-based, Canis lupus familiaris; conditions: whole blood
[10] = Volume of distribution at steady state in Beagle dog blood at 1 mg/kg, iv dosed via 60 mins infusion followed by 6 days washout and re-dosed via oral gavage at 1 mg/kg; type: ADME, organism-based, Canis lupus familiaris; conditions: whole blood, read-out: Vdss
Rattus norvegicus [11] = experiment: Total renal clearance in Wistar Han rat at 1 mg/kg, iv; type: ADME, organism-based; conditions: in vivo
[12] = Bioavailability in Wistar Han rat at 1 mg/kg, it measured after 12 hrs post dose; type: ADME, organism-based; conditions: in vivo, inhaled or intranasal
[13] = Clearance in Beagle dog liver microsomes at 0.5 uM up to 45 mins by LC-MS/MS analysis; type: ADME, Canis lupus familiaris, microsome; conditions: 0.75 h
[14] = Drug uptake in Wistar Han rat lung at 0.227 mg/kg administered via nebulisation up to 7 hrs; type: ADME, organism-based; conditions: in vivo, inhaled_or_intranasal
[15] = Clearance in human liver microsomes at 0.5 uM up to 45 mins by LC-MS/MS analysis; type: ADME, microsome; conditions: 0.75 h
[16] = Clearance in Wistar Han rat hepatocytes at 0.5 uM up to 60 mins by LC-MS/MS analysis; type: ADME, cell-based, Hepatocyte; conditions: 1 h
Canis familiaris [17] = experiment: Clearance in Beagle dog at 1 mg/kg, iv relative to liver blood flow; type: ADME, organism-based, Canis lupus familiaris; conditions: in vivo
[18] = Terminal half life in Beagle dog blood at 1 mg/kg, iv dosed via 60 mins infusion followed by 6 days washout and re-dosed via oral gavage at 1 mg/kg; type: ADME, organism-based, Canis lupus familiaris; conditions: whole blood, read-out: beta t1/2
[19] = Oral bioavailability in Wistar Han rat at 3 mg/kg via gavage; type: ADME, organism-based; conditions: in vivo
[20] = Clearance in Beagle dog hepatocytes at 0.5 uM up to 60 mins by LC-MS/MS analysis; type: ADME, cell-based, Canis lupus familiaris, Hepatocyte; conditions: 1 h
Rattus norvegicus [21] = experiment: Biliary clearance in Wistar Han rat assessed as unchanged parent compound level at 1 mg/kg, iv relative to total blood clearance; type: ADME, organism-based; conditions: in vivo
[22] = Cmax in Wistar Han rat at 3 mg/kg, po via gavage; type: ADME, organism-based; set-up: dose 3 mg/kg, route oral; conditions: in vivo
[23] = Protein binding in human plasma at 1 ug/ml after 4 hrs by rapid equilibrium dialysis and LC-MS/MS analysis; type: ADME, cell-free; conditions: at 1 µg/mL, read-out: PPB (converted)
[24] = Protein binding in rat blood at 1 ug/ml after 4 hrs by rapid equilibrium dialysis and LC-MS/MS analysis; type: ADME, tissue-based; conditions: at 1 µg/mL, read-out: PB (converted)
[25] = Oral bioavailability in Beagle dog at 1 mg/kg via gavage; type: ADME, organism-based, Canis lupus familiaris; conditions: in vivo
[26] = Blood clearance in Wistar Han rat at 1 mg/kg, iv via 30 mins infusion followed by 2 day washout and re-dosed via oral gavage at 3 mg/kg; type: ADME, organism-based; conditions: whole blood
[27] = Bioavailability in Wistar Han rat nebulized with dose level of 0.227 mg/kg; type: ADME, organism-based; conditions: in vivo, inhaled or intranasal
[28] = Protein binding in mouse lung at 1 ug/ml after 4 hrs by rapid equilibrium dialysis and LC-MS/MS analysis; type: ADME, tissue-based; conditions: at 1 µg/mL, read-out: PB (converted)
[29] = Protein binding in rat kidneys at 1 ug/ml after 4 hrs by rapid equilibrium dialysis and LC-MS/MS analysis; type: ADME, tissue-based; conditions: rat kidney tissue, at 1 µg/mL, read-out: PB (converted)
Canis familiaris [30] = experiment: Total renal clearance in Beagle dog at 1 mg/kg, iv; type: ADME, organism-based, Canis lupus familiaris; conditions: in vivo
[31] = Clearance in CD mouse hepatocytes at 0.5 uM up to 60 mins by LC-MS/MS analysis; type: ADME, cell-based, Hepatocyte; conditions: 1 h
Rattus norvegicus [32] = experiment: Clearance in Wistar Han rat at 1 mg/kg, iv relative to liver blood flow; type: ADME, organism-based; conditions: in vivo
[33] = Protein binding in human lung at 1 ug/ml after 4 hrs by rapid equilibrium dialysis and LC-MS/MS analysis; type: ADME, tissue-based; conditions: at 1 µg/mL, read-out: PB (converted)
in vivo [34] = conditions: Wistar Han, rat, inhaled or intranasal, 0.227 mg/kg
Description: Tmax in Wistar Han rat nebulized with dose level of 0.227 mg/kg

[35] = Drug uptake in Wistar Han rat lung at 6.23 mg/kg administered via nebulized inhalation for 60 mins and measured after 60 mins post inhalation period by MALDI-MS analysis; type: ADME, organism-based; conditions: in vivo, inhaled_or_intranasal, 1 h
[36] = Protein binding in dog plasma at 1 ug/ml after 4 hrs by rapid equilibrium dialysis and LC-MS/MS analysis; type: ADME, cell-free, Canis lupus familiaris; conditions: at 1 µg/mL, read-out: PPB (converted)
[37] = Cmax in Wistar Han rat nebulized with dose level of 0.227 mg/kg; type: ADME, organism-based; set-up: dose 0.227 mg/kg; conditions: in vivo, inhaled or intranasal
[38] = Clearance in Wistar Han rat liver microsomes at 0.5 uM up to 45 mins by LC-MS/MS analysis; type: ADME, microsome; conditions: 0.75 h
[39] = Clearance in Beagle dog blood at 1 mg/kg, iv dosed via 60 mins infusion followed by 6 days washout and re-dosed via oral gavage at 1 mg/kg; type: ADME, organism-based, Canis lupus familiaris; conditions: whole blood
[40] = Cmax in Beagle dog at 1 mg/kg, po via gavage; type: ADME, organism-based, Canis lupus familiaris; set-up: dose 1 mg/kg, route oral; conditions: in vivo
[41] = Protein binding in human blood at 1 ug/ml after 4 hrs by rapid equilibrium dialysis and LC-MS/MS analysis; type: ADME, tissue-based; conditions: at 1 µg/mL, read-out: PB (converted)
[42] = Protein binding in mouse blood at 1 ug/ml after 4 hrs by rapid equilibrium dialysis and LC-MS/MS analysis; type: ADME, tissue-based; conditions: at 1 µg/mL, read-out: PB (converted)
[43] = Terminal half life in Wistar Han rat at 1 mg/kg, iv dosed via 30 mins infusion; type: ADME, organism-based; conditions: in vivo, read-out: beta t1/2
[44] = Clearance in human hepatocytes at 0.5 uM up to 60 mins by LC-MS/MS analysis; type: ADME, cell-based, Hepatocyte; conditions: 1 h
[45] = Drug uptake in Wistar Han rat lung at 0.227 mg/kg administered via nebulisation after 7 hrs; type: ADME, organism-based; conditions: inhaled or intranasal, read-out: Drug uptake
[46] = Volume of distribution at steady state in Wistar Han rat at 1 mg/kg, iv via 30 mins infusion followed by 2 day washout and re-dosed via oral gavage at 3 mg/kg; type: ADME, organism-based; conditions: in vivo, read-out: Vdss
[47] = Drug uptake in lung of C57Bl/6J mouse at 15 mg/kg/day, sc administered via continuous infusion through mini-pumps measured within 24 hrs; type: ADME, organism-based; conditions: in vivo
[48] = Protein binding in dog blood at 1 ug/ml after 4 hrs by rapid equilibrium dialysis and LC-MS/MS analysis; type: ADME, tissue-based, Canis lupus familiaris; conditions: at 1 µg/mL, read-out: PB (converted)
[49] = Protein binding in rat liver at 1 ug/ml after 4 hrs by rapid equilibrium dialysis and LC-MS/MS analysis; type: ADME, tissue-based; conditions: at 1 µg/mL, read-out: PB (converted)
[50] = Bioavailability in Wistar Han rat at 0.227 mg/kg administered via nebulisation; type: ADME, organism-based; conditions: in vivo, inhaled or intranasal
in vivo [51] = conditions: Wistar Han, rat, po, 3 mg/kg
[52] = Stability in pH 5 to 7 solution under refrigerated conditions; type: physicochemical; conditions: buffer
[53] = Stability in solid state form at elevated temperatures and relative humidity conditions; type: physicochemical
[54] = Stability in saline at pH 4 at 50 degC; type: physicochemical; conditions: buffer

logD (physchem): 2.72
Compound: Cc1cnn(C)c1-c1cccc([C@H](CC(=O)O)CN2CC[C@@H](CCc3ccc4c(n3)NCCC4)C2)c1

logD (physchem): 2.4
Compound: O=C(O)C[C@H](CN1CC[C@@H](CCc2ccc3c(n2)NCCC3)C1)c1cccc(-n2cccn2)c1
IC50 [1]: 0.794 µM
IC50 [2]: > 50.1 µM

logD (physchem): 1.97
Compound: O=C(O)CC(CN1CC[C@@H](CCc2ccc3c(n2)NCCC3)C1)c1cccc(-n2ccnc2)c1 (mixture of isomers)
IC50 [1]: > 31.6 µM
IC50 [2]: > 50.1 µM

logD (physchem): 2.56
Compound: O=C(O)C[C@H](CN1CC[C@@H](CCc2ccc3c(n2)NCCC3)C1)c1cccc(C2CCOC2)c1 (stereo in doubt; 28xI1)
IC50 [1]: 12.6 µM
IC50 [2]: 39.8 µM

fraction unbound at 4 h, 1 ug/ml [3]: 0.17
logD [5]: 2.58
Compound: O=C(O)C[C@H](CN1CC[C@@H](CCc2ccc3c(n2)NCCC3)C1)c1cccc(C2CCOC2)c1 (stereo in doubt; 28xI2)
IC50 [1]: 31.6 µM
pIC50 [4]: 4.4

Compound: Cc1cc(C)n(-c2cccc([C@H](CC(=O)O)CN3CC[C@@H](CCc4ccc5c(n4)NCCC5)C3)c2)n1 [GSK-3008348 FREE BASE]
CLH [6]: 3 mL/min/g
Drug uptake [7]: Active
Drug uptake [8]: Active
Tmax [9]: 15 to 30 min
fraction unbound at 4 h, 1 ug/ml [3]: 0.08
Vd [10]: 2.6 to 4.7 L/kg
CL (Rattus norvegicus [11]): 15%
bioavailability [12]: 21%
CLH [13]: < 0.53 mL/min/g
Drug uptake [14]: 716 ng
CLH [15]: 0.58 mL/min/g
CLH [16]: 9.45 mL/min/g
CL (Canis familiaris [17]): 50%
half-life [18]: 72 to 324 min
bioavailability [19]: < 2%
CLH [20]: < 1.73 mL/min/g
CL (Rattus norvegicus [21]): 24%
Cmax [22]: 3 to 9 ng/mL
fraction unbound at 4 h, 1 ug/ml [23]: 0.036
fraction unbound at 4 h, 1 ug/ml [24]: 0.294
bioavailability [25]: 27 to 34%
clearance [26]: 51 to 60 mL/min/kg
bioavailability [27]: 40 to 63%
fraction unbound at 4 h, 1 ug/ml [28]: 0.1
fraction unbound at 4 h, 1 ug/ml [29]: 0.027
CL (Canis familiaris [30]): 21%
CLH [31]: 15.3 mL/min/g
CL (Rattus norvegicus [32]): 70%
fraction unbound at 4 h, 1 ug/ml [33]: 0.108
Tmax (in vivo [34]): 12 min
Drug uptake [35]: Not Active
fraction unbound at 4 h, 1 ug/ml [36]: 0.4
Cmax [37]: 30 to 53 ng/mL
CLH [38]: 0.55 mL/min/g
clearance [39]: 25 to 33 mL/min/kg
Cmax [40]: 55 to 76 ng/mL
fraction unbound at 4 h, 1 ug/ml [41]: 0.083
fraction unbound at 4 h, 1 ug/ml [42]: 0.211
half-life [43]: 48 to 54 min
CLH [44]: < 0.86 mL/min/g
concentration at 7 h [45]: 10 ng/g
Vd [46]: 1.8 to 2.3 L/kg
Drug uptake [47]: Active
fraction unbound at 4 h, 1 ug/ml [48]: 0.228
fraction unbound at 4 h, 1 ug/ml [49]: 0.085
bioavailability [50]: 54%
Tmax (in vivo [51]): 30 to 120 min

Compound: Cc1cc(C)n(-c2cccc([C@H](CC(=O)O)CN3CC[C@@H](CCc4ccc5c(n4)NCCC5)C3)c2)n1.Cl [GSK-3008348]
Stability [52]: 6 weeks
Stability [53]: 4 weeks
Stability [54]: <= 6 weeks
